Source: ChEMBL document CHEMBL1155119, “Identification of novel inhibitors of methionyl-tRNA synthetase (MetRS) by virtual screening” (Bioorg Med Chem Lett, 2008)
pIC50: −log10 of the molar value.

Columns and labels:
[1] = Inhibition of Staphylococcus aureus MetRS assessed as decrease in […] incorporation by SPA
Staphylococcus aureus [2] = experiment: Inhibition of Staphylococcus aureus MetRS assessed as decrease in […] incorporation at 100 uM by SPA
Staphylococcus aureus [3] = experiment: Inhibition of Staphylococcus aureus MetRS assessed as decrease in […] incorporation at 40 uM by SPA

SMILES | pIC50 [1] | inhibition (Staphylococcus aureus [2]) [%] | inhibition (Staphylococcus aureus [3]) [%]
NC(=O)[C@H](Cc1ccc(O)cc1)NC(=O)[C@@H]1CCN1/C=C1\N=C(c2ccc(Cl)cc2Cl)OC1=O | 7.15 | – | –
O=C(Nc1cccc(O)c1)c1cnn2c1NC(c1cccs1)CC2C(F)(F)F (configuration not stated) | 5.24 | 83 | –
O=C(Nc1cc(Cl)ccc1O)c1cnn2c1NC(c1ccc(Br)cc1)CC2C(F)(F)F (configuration not stated) | – | 47 | –
O=C(Nc1cccc(O)c1)c1cnn2c1NC(c1ccc(Br)cc1)CC2C(F)(F)F (configuration not stated) | 5.08 | 55 | –
O=C(Nc1ccccc1O)c1cc(C(=O)Nc2ccccc2O)cc(N2C(=O)c3ccccc3C2=O)c1 | 4.94 | 92 | –
O=C(N/N=C/c1ccc(O)cc1O)c1cc(-c2ccccc2)nc2ccccc12 | 4.33 | 87 | –
Clc1ccc(-c2ccc(-c3cc(-c4nnn[nH]4)nn3-c3cccnc3)cc2)c(Cl)c1 | 6.89 | – | –
O=C(NCc1nc2ccccc2[nH]1)[C@@H]1CC(O)CN1Cc1ccc(Cl)cc1Cl (some centres not stated) | 6.68 | – | –
S=C(Nc1ccccc1)Nc1nc2ccccc2n1CCOc1ccccc1Cl | 4.60 | 66 | –
O=C(/N=N/c1nc(Nc2ccccc2)nc(N2CCOCC2)n1)Nc1ccc(Cl)cc1 | – | 81 | 34
O=c1cc(NCCCNC2CCOc3c(Br)cc(Br)cc32)[nH]c2ccccc12 (configuration not stated) | 8.10 | – | –
Nc1nn(CCO)c2cc(-c3ccc(Cl)cc3Cl)ccc12 | 6.24 | – | –
S=C(Nc1ccccc1)Nc1nc2ccccc2n1CCOc1ccc(Cl)cc1 | 4.06 | 67 | –
O=C(NC(C(=O)N/N=C/c1ccccc1O)c1n[nH]c(=O)c2ccccc12)c1ccccc1 (configuration not stated) | 4.45 | 52 | –
Cc1cccc(C(=O)Nc2nnc(CC(=O)N/N=C/c3ccc(O)cc3O)s2)c1 | 4.33 | 84 | –
O=C(Nc1cccc(Cl)c1)Nc1sc2c(c1-c1nc3ccccc3s1)CCCC2 | 5.20 | 80 | –

Further lines, results first:

pIC50 [1] | inhibition (Staphylococcus aureus [2]) [%] | inhibition (Staphylococcus aureus [3]) [%] | SMILES
4.25 | 82 | – | O=C(CSc1nc2ccccc2n1Cc1ccc(Cl)cc1)N/N=C/c1ccccc1O
4.39 | 61 | – | Cc1ccc(S(=O)(=O)N2CCC(C(=O)N/N=C/c3ccccc3O)CC2)cc1
4.02 | 91 | – | Cc1cc(Cl)ccc1NC(=O)CCC(=O)N/N=C/c1ccccc1O
4.58 | 80 | – | O=C(CNC(=O)c1ccc(Cl)cc1)N/N=C/c1c(O)ccc2ccccc12
– | 45 | – | O=C(Cn1nnc(-c2ccccc2)n1)N/N=C/c1ccc(O)cc1O
– | 91 | 35 | COc1ccc(O)c(/C=N/NC(=O)CNC(=O)c2ccc(Cl)cc2)c1
4.63 | 77 | – | O=C(Nc1ccccc1C(=O)N/N=C/c1ccccc1O)c1ccc(Cl)cc1
– | 76 | 52 | O=C(CSc1nc2ccccc2n1Cc1ccccc1)N/N=C/c1ccccc1O
– | 47 | – | O=C(CSc1ccc2ccccc2n1)N/N=C/c1ccccc1O
4.38 | 72 | – | COc1ccc(O)c(/C=N/NC(=O)CCC(=O)Nc2ccc(Br)cc2)c1
5.32 | 86 | – | O=C(CCCOc1ccc(Cl)cc1Cl)N/N=C/c1ccccc1O
7.70 | – | – | O=C(O)c1ccc(OCc2ccc(Cl)cc2Cl)c(OCc2nc3ccccc3[nH]2)c1
